Results from patent publication US6376670B1, “Quinoline-indole antimicrobial agents, uses and compositions related thereto” (Sepracor Inc., priority 1997, dated 2002).

Experiments:
Type in all cases: cell-based
[1] = tested on: VISA-5836; test: MIC against VISA strain; settings: Staphylococcus aureus
Description: (§1) Stock solutions of compounds are prepared with a concentration of 10 mg/mL. These solutions are then diluted 1:4 to give a concentration of 2.5 mg/mL. The compounds are then serially diluted 1:2 for 6 iterations. The concentrations made for each compound are 2.5, 1.25, 0.625, 0.3125, 0.156, 0.078, and 0.039 mg/mL. A control sample (no compound) is run along with each compound tested. All dilutions are made in DMSO.
(§2) All wells of a 96 well microtiter plate are filled with 100 μL of BHI (Brain-Heart Infusion) broth. Columns on the plate are labeled 1-12, and rows are labeled A-H. Each column of wells is used to test one series of diluted compounds. Into each well of 100 μL of BHI broth, 1 μL of diluted compound is placed for a 1:100 dilution. This makes the final concentration of each drug series 25, 12.5, 6.25, 3.125, 1.56, 0.78, 0.39, and 0 μg/mL.
(§3) Test Organism: A sterile 15 mL screw cap tube is filled wth 3 mL of BHI broth. Next, 2-3 colonies of test organism are inoculated into the tube. The tube is then incubated at 37° C. in a CO2 (approx. 7%) atmosphere jar. The organisms are allowed to grow to the density of a 0.5 McFarland standard (10^8 cells/mL). The organism is then inoculated into each well of the microtiter plate containing the diluted compounds to be tested for MIC. The inoculum is 1 μL in volume and represents 10^5 to 10^6 cells/mL.
(§4) After inoculation the plates are covered and incubated at 37° C. and approx. 7-10% CO2 atmosphere overnight (about 16 hours). The plates are then observed for growth, the well with the lowest concentration of drug and no observable growth represents the well determining the MIC.

[2] = tested on: VISA-5827; test: MIC against VISA strain; settings: Staphylococcus aureus
Description: as §1, §2, §3, §4

[3] = tested on: methicillin-resistant Staphylococcus aureus (MRSA); test: Determination of MIC values (BHI broth, 96 well microtiter plate); settings: Staphylococcus aureus, MRSA; read-out: MIC MRSA
Outline: (§5)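 BHI broth microdilution; final compound 25, 12.5, 6.25, 3.125, 1.56, 0.78, 0.39, 0 µg/mL (1% DMSO). Inoculum 10^5–10^6 cells/mL; 37° C, ~7-10% CO2, ~16 h. MIC = lowest concentration, no observable growth.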

[4] = tested on: Streptococcus pneumoniae; test: as above; settings: Streptococcus pneumoniae; S. pneu; BHI broth, overnight 37° C.; read-out: MIC S. pneu
Outline: as §5

[5] = tested on: ciprofloxacin-resistant Staphylococcus aureus (CRSA); test: as above; settings: MRSA, cells marked [CRSA], overnight 37° C., read-out: MIC [CRSA] (printed in MRSA column)
Outline: as §5

[6] = tested on: vancomycin-resistant Enterococcus spp. (VRE); test: as above; settings: Enterococcus, VRE, VREF; BHI broth, overnight 37° C.; read-out: MIC VREF
Outline: as §5

[7] = tested on: S. aureus (ATCC 25923); test: MIC against S. aureus strain; settings: Staphylococcus aureus, ATCC25923
Description: as §1, §2, §3, §4

[8] = tested on: S. aureus (ATCC 29213); test: MIC against S. aureus strain; settings: Staphylococcus aureus, ATCC29213
Description: as §1, §2, §3, §4

[9] = tested on: S. aureus (ATCC 33591); test: MIC against S. aureus strain; settings: Staphylococcus aureus, ATCC33591
Description: as §1, §2, §3, §4

[10] = tested on: S. aureus (ATCC 33592); test: MIC against S. aureus strain; settings: Staphylococcus aureus, ATCC33592
Description: as §1, §2, §3, §4

[11] = tested on: S. aureus 8325-4; test: Lytic response (culture turbidity 600 nm) in MH broth; settings: added at 5×, 10×, and 20×MIC to early log phase cultures
Description: (§6) Activities of the quinoline-indoles and comparator agents were determined against MSSA (n=32), MRSA (n=31) and VISA (n=7). Susceptibility testing on MH agar was performed using an inoculum of 10^6 c.f.u. Bactericidal, lytic and PAEs were determined on S. aureus 8325-4 in MH broth. Samples were removed for viable numbers on MH agar (for bactericidal response) and culture turbidity (600 nm) (for lytic response). PAEs were determined by a broth dilution method following exposure of bacteria to drugs at 5×MIC for 60 min.
The effects of the quinoline-indoles, and ciprofloxacin and rifampin (controls) on the integrity of S. aureus 8325-4 were examined following addition at 5×, 10×, and 20×MIC to early log phase cultures.
The lysis experiments were performed using classical “time kill-curve” methodology. See V. Lorian, Antibiotics in Laboratory Medicine, 4th ed., Chapter 2; Williams & Wilkins, Baltimore, 1996 (ISBN 0-683-05169-5). Bacteria (e.g., S. aureus) are exposed in liquid culture (early log phase approx […]) to multiples (typically 2×, 5×, 10×, and 20×) of the single cell agar MIC. Drug-free controls are also included. […] The samples are diluted in fresh drug-free medium and aliquots from a range of dilutions spread onto drug-free agar plates and those giving 30-300 colony forming units/plate are counted for quantification of survivors versus time of drug exposure. […]

[12] = tested on: S. aureus 8325-4; test: Post-antibiotic effect (PAE), broth dilution method; settings: exposed to 5×MIC for 60 min before washout; PAE = T-C
Description: as §6
The PAE, defined as the lag period before the target organism resumes a normal growth rate after exposure to an inhibitor, was determined for D, A, and rifampin (control) against S. aureus 8325-4. Organisms were exposed to 5×MIC for 60 min. before washout and PAE calculated as T-C, wherein T=time required for treated cells to increase 1 log CFU/mL; and C=time required for non-treated control to increase 1 log CFU/ml. after washout with fresh medium. PAEs for D and A were both 40 min and for the rifampin control PAE was 180 mins. The rifampin PAE is in agreement with literature values.

COc1ccc2nc(-c3c[nH]c4ccc(Cl)cc34)ccc2c1 [compound 6]
MIC [1]: < 7 µg/mL
MIC [2]: < 7 µg/mL
MIC [3]: < 7 µg/mL

NCCNC(=O)c1cc(-c2c[nH]c3ccc(Br)cc23)nc2cc(I)ccc12 [Example 296]
MIC [4]: < 7 µg/mL
MIC [5]: < 7 µg/mL
MIC [6]: < 7 µg/mL

Brc1ccc2[nH]cc(-c3nc4ccc(C#CCN5CCCCC5)cc4c4c3CCO4)c2c1 [compound 9]
MIC [1]: < 7 µg/mL
MIC [2]: < 7 µg/mL
MIC [3]: < 7 µg/mL

NCCNC(=O)c1cc(-c2c[nH]c3ccc(Br)cc23)nc2ccc(Cl)cc12 [Example 286]
MIC [4]: < 7 µg/mL
MIC [5]: < 7 µg/mL
MIC [6]: < 7 µg/mL

OCc1cc(-c2c[nH]c3ccc(Br)cc23)nc2cc(F)ccc12 [compound 7]
MIC [1]: < 7 µg/mL
MIC [2]: < 7 µg/mL
MIC [3]: < 7 µg/mL

COc1ccc(NC(=O)c2cc(-c3c[nH]c4ccc(Br)cc34)nc3ccc(C#CCN4CCCCC4)cc23)cc1 [compound 3]
MIC [1]: < 7 µg/mL
MIC [2]: < 7 µg/mL
MIC [3]: < 7 µg/mL

NCc1ccc(CNC(=O)c2cc(-c3c[nH]c4ccc(Br)cc34)nc3ccc(C#CCN4CCCCC4)cc23)cc1 [compound 2]
MIC [1]: < 7 µg/mL
MIC [2]: < 7 µg/mL
MIC [3]: < 7 µg/mL

Cn1cc(-c2cc(C(=O)NCc3ccc(CN)cc3)c3ccc(F)cc3n2)c2cc(Br)ccc21 [Example 323]
MIC [4]: < 7 µg/mL
MIC [5]: < 7 µg/mL
MIC [6]: < 25 µg/mL

COC(=O)c1cc(-c2c[nH]c3ccc(Br)cc23)nc2cc(F)ccc12 [compound 4]
MIC [1]: < 7 µg/mL
MIC [2]: < 7 µg/mL
MIC [3]: < 7 µg/mL

Cn1cc(-c2cc(C(=O)NCCN)c3ccc(I)cc3n2)c2cc(Br)ccc21 [Example 329]
MIC [4]: < 7 µg/mL
MIC [5]: < 7 µg/mL
MIC [6]: < 7 µg/mL

NCC(O)CNC(=O)c1cc(-c2c[nH]c3ccc(Br)cc23)nc2cc(Cl)cc(Cl)c12 (stereo not shown) [Entry 11]
MIC [7]: < 7 µg/mL
MIC [8]: < 7 µg/mL
MIC [9]: < 7 µg/mL
MIC [10]: < 7 µg/mL

NCCNC(=O)c1cc(-c2c[nH]c3ccc(Br)cc23)nc2cc(Cl)c(C#CCN3CCCCC3)cc12 [compound 5]
MIC [1]: < 7 µg/mL
MIC [2]: < 7 µg/mL
MIC [3]: < 7 µg/mL

O=C(O)c1cn(C2CC2)c2cc(N3CCNCC3)c(F)cc2c1=O [ciprofloxacin]
bactericidal mechanism of action (lytic versus non-lytic) [11]: non-lytic

CN(CC[N+](C)(C)C)C(=O)c1cc(-c2c[nH]c3ccc(Br)cc23)nc2cc(Cl)ccc12 [compound 10]
MIC [1]: < 7 µg/mL
MIC [2]: < 7 µg/mL
MIC [7]: < 7 µg/mL
MIC [8]: < 7 µg/mL
MIC [9]: < 7 µg/mL
MIC [10]: < 7 µg/mL
MIC [3]: < 7 µg/mL

NCc1ccc(CNC(=O)c2cc(-c3c[nH]c4ccc(Br)cc34)nc3ccccc23)cc1 [Example 284]
MIC [5]: < 7 µg/mL

NCCNC(=O)c1cc(-c2c[nH]c3ccc(Br)cc23)nc2cc(Cl)c(C#CCN3CCCCC3)cc12 [compound 4]
MIC [7]: < 7 µg/mL
MIC [8]: < 7 µg/mL
MIC [9]: < 7 µg/mL
MIC [10]: < 7 µg/mL

COC(=O)c1cc(-c2c[nH]c3ccc(Br)cc23)nc2cc(F)ccc12 [compound 3]
MIC [7]: < 7 µg/mL
MIC [8]: < 7 µg/mL
MIC [9]: < 7 µg/mL
MIC [10]: < 7 µg/mL

CO[C@H]1/C=C/O[C@@]2(C)Oc3c(C)c(O)c4c(O)c(c(/C=N/N5CCN(C)CC5)c(O)c4c3C2=O)NC(=O)/C(C)=C\C=C\[C@H](C)[C@H](O)[C@@H](C)[C@@H](O)[C@@H](C)[C@H](OC(C)=O)[C@@H]1C [rifampin]
bactericidal mechanism of action (lytic versus non-lytic) [11]: non-lytic
post-antibiotic effect (PAE) [12]: 180 min

CCOC(=O)n1cc(-c2cc(C(=O)NCc3cccc(CN)c3)c3cc(I)ccc3n2)c2cc(Br)ccc21 [Example 324]
MIC [4]: > 25 µg/mL
MIC [5]: > 25 µg/mL
MIC [6]: > 25 µg/mL

Brc1ccc2[nH]cc(-c3nc4ccc(C#CCN5CCCCC5)cc4c4c3CCO4)c2c1 [compound 8]
MIC [7]: < 7 µg/mL
MIC [8]: < 7 µg/mL
MIC [9]: < 7 µg/mL
MIC [10]: < 7 µg/mL

OCc1cc(-c2c[nH]c3ccc(Br)cc23)nc2cc(F)ccc12 [compound 6]
MIC [7]: < 7 µg/mL
MIC [8]: < 7 µg/mL
MIC [9]: < 7 µg/mL
MIC [10]: < 7 µg/mL

NCc1cc(-c2c[nH]c3ccc(Br)cc23)nc2cc(Cl)ccc12 [compound 8]
MIC [1]: < 7 µg/mL
MIC [2]: < 7 µg/mL
MIC [3]: < 7 µg/mL

NCc1ccc(CNC(=O)c2cc(-c3c[nH]c4ccc(Br)cc34)nc3ccccc23)cc1 [compound 1]
MIC [1]: < 7 µg/mL
MIC [2]: < 7 µg/mL
MIC [3]: < 7 µg/mL

NCCNC(=O)c1cc(-c2c[nH]c3ccc(Br)cc23)nc2c(I)cccc12 [Example 320]
MIC [4]: < 7 µg/mL
MIC [5]: < 7 µg/mL
MIC [6]: < 7 µg/mL
